The values below come from DBAASP.

Converted amounts (≈) assume the structure as drawn.

What all share (assay): ≥ marks a high value that may be exact or a test limit, other limits are often not marked, values filed in µg/mL are converted to µM
Assay [1] relates to Pseudomonas aeruginosa PAO1.
Assay [2] concerns Escherichia coli BL21.
In assay [3] the test system is Staphylococcus aureus USA 300.
Assay [4] deals with Streptococcus pyogenes M1T1 5448.
In assay [5] the test system is Pseudomonas aeruginosa ATCC 27853.
In assay [6] the test system is Candida albicans.
Assay [7] relates to Staphylococcus aureus MR.
Assay [8] concerns Staphylococcus aureus ATCC 49476.
For assay [9], the system named is Bacillus subtilis 168.
The subject of assay [10] is Leuconostoc lactis.

In the case of `CC[C@H](C)[C@H](NC(=O)[C@H](CCCCN)NC(=O)[C@H](CCCCN)NC(=O)CNC(=O)[C@H](CCC(=O)O)NC(=O)[C@H](CCC(N)=O)NC(=O)[C@@H](NC(=O)[C@H](CCCCN)NC(=O)[C@H](CCCCN)NC(=O)[C@H](CCCCN)NC(=O)[C@H](CC(C)C)NC(=O)[C@H](CCCN=C(N)N)NC(=O)[C@H](CCC(N)=O)NC(=O)[C@H](Cc1ccccc1)NC(=O)[C@@H](NC(=O)[C@H](CCCCN)NC(=O)[C@H](CCC(=O)O)NC(=O)[C@@H](NC(=O)CNC(=O)[C@H](C)N)[C@@H](C)O)[C@@H](C)CC)[C@@H](C)CC)C(=O)N[C@@H](C)C(=O)N[C@@H](CCCCN)C(=O)N[C@@H](CCCN=C(N)N)C(=O)N[C@@H](C)C(=O)N[C@@H](Cc1c[nH]c2ccccc12)C(=O)O` [AGTEKIFQRLKKKIQEGKKIAKRAW], the MIC came to 64 µM (≈ 189 µg/mL) in assay [1], 1 µM (≈ 2.96 µg/mL) in assay [2], 8 µM (≈ 23.7 µg/mL) in assay [3] and 0.25 µM (≈ 0.739 µg/mL) in [4].
Take `CC[C@H](C)[C@H](NC(=O)[C@H](C)NC(=O)[C@H](CCCCN)NC(=O)CNC(=O)[C@H](C)NC(=O)[C@H](CO)NC(=O)[C@H](Cc1ccccc1)NC(=O)[C@H](CC(C)C)NC(=O)CNC(=O)CNC(=O)[C@H](C)NC(=O)[C@H](C)NC(=O)[C@H](Cc1cnc[nH]1)NC(=O)[C@H](Cc1cnc[nH]1)NC(=O)[C@@H](NC(=O)[C@@H](N)Cc1ccccc1)[C@@H](C)CC)C(=O)N[C@@H](Cc1cnc[nH]1)C(=O)N[C@@H](CCCN=C(N)N)C(=O)N[C@@H](CC(C)C)C(=O)N[C@H](C(=O)N[C@@H](CCCN=C(N)N)C(=O)N[C@@H](CCCN=C(N)N)C(=O)N[C@@H](CCCN=C(N)N)C(=O)N[C@@H](CCCN=C(N)N)C(=O)N[C@@H](CCCN=C(N)N)C(=O)O)[C@@H](C)CC` [FIHHAAGGLFSAGKAIHRLIRRRRR]: the minimal inhibitory concentration (MIC) in assay [5] is 177 µM (≈ 512 µg/mL); in assay [6], 44.2 µM (≈ 128 µg/mL); in assay [7] it was at least 177 µM; in assay [8], at least 177 µM.
Take `CC[C@H](C)[C@H](NC(=O)[C@H](CC(C)C)NC(=O)[C@H](CCCN=C(N)N)NC(=O)[C@H](Cc1cnc[nH]1)NC(=O)[C@H](C)NC(=O)[C@H](C)NC(=O)[C@H](CCCCN)NC(=O)CNC(=O)[C@H](C)NC(=O)[C@H](CO)NC(=O)[C@H](Cc1ccccc1)NC(=O)[C@H](CC(C)C)NC(=O)CNC(=O)CNC(=O)[C@@H](NC(=O)[C@@H](NC(=O)[C@H](Cc1cnc[nH]1)NC(=O)[C@H](Cc1cnc[nH]1)NC(=O)[C@@H](NC(=O)[C@@H](N)Cc1ccccc1)[C@@H](C)CC)[C@@H](C)CC)[C@@H](C)CC)C(=O)N[C@@H](CCCN=C(N)N)C(=O)N[C@@H](CCCN=C(N)N)C(=O)N[C@@H](CCCN=C(N)N)C(=O)N[C@@H](CCCN=C(N)N)C(=O)N[C@@H](CCCN=C(N)N)C(=O)O` [FIHHIIGGLFSAGKAAHRLIRRRRR]: the minimal inhibitory concentration (MIC) in assay [5] turned out to be 87.1 µM (≈ 256 µg/mL); in [6], 43.5 µM (≈ 128 µg/mL); in [7], 21.8 µM (≈ 64 µg/mL); in [8] it was 21.8 µM (≈ 64 µg/mL).
With `CC[C@H](C)[C@H](NC(=O)[C@H](CC(C)C)NC(=O)[C@H](CCCN=C(N)N)NC(=O)[C@H](Cc1cnc[nH]1)NC(=O)[C@H](CCCN=C(N)N)NC(=O)[C@H](C)NC(=O)[C@H](CCCCN)NC(=O)CNC(=O)[C@H](C)NC(=O)[C@H](CO)NC(=O)[C@H](Cc1ccccc1)NC(=O)[C@H](CC(C)C)NC(=O)CNC(=O)CNC(=O)[C@@H](NC(=O)[C@@H](NC(=O)[C@H](Cc1cnc[nH]1)NC(=O)[C@H](Cc1cnc[nH]1)NC(=O)[C@@H](NC(=O)[C@@H](N)Cc1ccccc1)[C@@H](C)CC)[C@@H](C)CC)[C@@H](C)CC)C(=O)N[C@@H](CCCN=C(N)N)C(=O)N[C@@H](CCCN=C(N)N)C(=O)N[C@@H](CCCN=C(N)N)C(=O)N[C@@H](CCCN=C(N)N)C(=O)N[C@@H](CCCN=C(N)N)C(=O)O` [FIHHIIGGLFSAGKARHRLIRRRRR], the minimal inhibitory concentration (MIC) is over 169 µM in [5], 42.3 µM (≈ 128 µg/mL) in [6], at least 169 µM in assay [7] and at least 169 µM in assay [8].
As to `CC[C@H](C)[C@H](NC(=O)[C@H](Cc1cnc[nH]1)NC(=O)[C@H](CCCCN)NC(=O)CNC(=O)[C@@H](NC(=O)[C@H](CO)NC(=O)[C@H](Cc1ccccc1)NC(=O)[C@H](CC(C)C)NC(=O)CNC(=O)CNC(=O)[C@@H](NC(=O)[C@@H](NC(=O)[C@H](Cc1cnc[nH]1)NC(=O)[C@H](Cc1cnc[nH]1)NC(=O)[C@@H](NC(=O)[C@@H](N)Cc1ccccc1)[C@@H](C)CC)[C@@H](C)CC)[C@@H](C)CC)C(C)C)C(=O)N[C@@H](Cc1cnc[nH]1)C(=O)N[C@@H](CCCN=C(N)N)C(=O)N[C@@H](CC(C)C)C(=O)N[C@H](C(=O)N[C@@H](CCCN=C(N)N)C(=O)N[C@@H](CCCN=C(N)N)C(=O)N[C@@H](CCCN=C(N)N)C(=O)N[C@@H](CCCN=C(N)N)C(=O)N[C@@H](CCCN=C(N)N)C(=O)O)[C@@H](C)CC` [FIHHIIGGLFSVGKHIHRLIRRRRR], the MIC is 41.6 µM (≈ 128 µg/mL) in assay [5], 41.6 µM (≈ 128 µg/mL) in [6], 10.4 µM (≈ 32 µg/mL) in assay [7] and 5.2 µM (≈ 16 µg/mL) in assay [8].
In turn, `CC[C@H](C)[C@H](NC(=O)[C@H](CCCCN)NC(=O)[C@H](CC(C)C)NC(=O)[C@H](Cc1ccccc1)NC(=O)[C@H](CCCCN)NC(=O)[C@H](CCCCN)NC(=O)[C@H](Cc1ccccc1)NC(=O)[C@H](C)NC(=O)[C@H](CCCCN)NC(=O)[C@H](CCCCN)NC(=O)[C@H](Cc1ccccc1)NC(=O)[C@H](CC(C)C)NC(=O)[C@H](CCCCN)NC(=O)[C@H](Cc1c[nH]c2ccccc12)NC(=O)[C@H](CCCCN)NC(=O)CN)C(=O)N[C@@H](CC(C)C)C(=O)N[C@@H](C)C(=O)N[C@@H](CS)C(=O)O` [GKWKLFKKAFKKFLKILAC] displayed an MIC in assay [9] of 3.2 µM (≈ 7.35 µg/mL).
With `CC[C@H](C)[C@H](NC(=O)[C@H](CO)NC(=O)[C@H](CO)NC(=O)[C@@H](NC(=O)[C@H](CC(C)C)NC(=O)CN)C(C)C)C(=O)NCC(=O)N[C@@H](CCCCN)C(=O)N[C@@H](C)C(=O)N[C@@H](CC(C)C)C(=O)NCC(=O)NCC(=O)N[C@@H](CC(C)C)C(=O)N[C@@H](CC(C)C)C(=O)N[C@H](C(=O)N[C@@H](CC(=O)O)C(=O)N[C@H](C(=O)N[C@H](C(=O)N[C@@H](CCCCN)C(=O)N[C@@H](CO)C(=O)N[C@@H](CCCCN)C(=O)NCC(=O)N[C@@H](CCC(N)=O)C(=O)N1CCC[C@H]1C(=O)N[C@@H](C)C(=O)O)C(C)C)C(C)C)C(C)C` [GLVSSIGKALGGLLVDVVKSKGQPA], the minimum inhibitory concentration (MIC) in [10] was 20.9 µM (≈ 50 µg/mL).
Take `CC[C@H](C)[C@H](N)C(=O)N[C@H](C(=O)NCC(=O)NCC(=O)N[C@@H](CC(C)C)C(=O)N[C@@H](Cc1ccccc1)C(=O)N[C@@H](CO)C(=O)N[C@@H](C)C(=O)NCC(=O)N[C@@H](CCCCN)C(=O)N[C@@H](C)C(=O)N[C@H](C(=O)N[C@@H](Cc1cnc[nH]1)C(=O)N[C@@H](CCCN=C(N)N)C(=O)N[C@@H](CC(C)C)C(=O)N[C@H](C(=O)N[C@@H](CCCN=C(N)N)C(=O)N[C@@H](CCCN=C(N)N)C(=O)N[C@@H](CCCN=C(N)N)C(=O)N[C@@H](CCCN=C(N)N)C(=O)N[C@@H](CCCN=C(N)N)C(=O)O)[C@@H](C)CC)[C@@H](C)CC)[C@@H](C)CC` [IIGGLFSAGKAIHRLIRRRRR]: the MIC in assay [5] is 105 µM (≈ 256 µg/mL); in assay [6], 26.2 µM (≈ 64 µg/mL); in [7], 26.2 µM (≈ 64 µg/mL); in assay [8], at least 52.3 µM.
On to `CC[C@H](C)[C@H](NC(=O)[C@H](CS)NC(=O)[C@H](CCSC)NC(=O)[C@H](C)NC(=O)[C@H](CCCN=C(N)N)NC(=O)[C@@H](N)CC(C)C)C(=O)N[C@@H](CCCCN)C(=O)N[C@@H](Cc1c[nH]c2ccccc12)C(=O)N[C@@H](Cc1c[nH]c2ccccc12)C(=O)N[C@@H](CO)C(=O)NCC(=O)N[C@@H](CCCCN)C(=O)N[C@@H](Cc1cnc[nH]1)C(=O)N1CCC[C@H]1C(=O)N[C@@H](CCCCN)C(=O)O` [LRAMCIKWWSGKHPK], for which, in [9], the MIC amounted to 7 µM (≈ 12.9 µg/mL).
As to `CC[C@H](C)[C@H](NC(=O)[C@H](CCCN=C(N)N)NC(=O)[C@H](CCC(N)=O)NC(=O)[C@@H](NC(=O)CNC(=O)[C@@H](N)Cc1c[nH]c2ccccc12)[C@@H](C)O)C(=O)N[C@@H](CCCCN)C(=O)N[C@@H](C)C(=O)N[C@@H](Cc1ccc(O)cc1)C(=O)N[C@@H](CC(C)C)C(=O)N[C@@H](CCCN=C(N)N)C(=O)N[C@@H](CCCN=C(N)N)C(=O)N[C@@H](CCC(=O)O)C(=O)N[C@H](C(=O)N[C@@H](CCCN=C(N)N)C(=O)N[C@@H](CCCCN)C(=O)N[C@@H](CCCN=C(N)N)C(=O)NCC(=O)N[C@@H](CCCN=C(N)N)C(=O)N[C@@H](CCCCN)C(=O)N[C@@H](C)C(=O)N[C@H](C(=O)N[C@H](C(=O)N[C@@H](C)C(=O)N[C@@H](Cc1c[nH]c2ccccc12)C(=O)O)[C@@H](C)CC)C(C)C)[C@@H](C)CC` [WGTQRIKAYLRREIRKRGRKAVIAW], the minimum inhibitory concentration (MIC) was 8 µM (≈ 24.9 µg/mL) in assay [1], 2 µM (≈ 6.23 µg/mL) in assay [2] and 0.5 µM (≈ 1.56 µg/mL) in assay [4].

The MIC is the lowest concentration found to suppress growth.
